Results reported in US4088778A, “Method for the treatment of hypertension” (priority 1975, dated 1978).

Test: Clinical Test I, double blind: subjective symptoms
Type: in vivo, human patients
Conditions: for Stiffness in Shoulders: Improvement ratio: P group 45.2
Procedure: 94 patients of hypertension or arteriosclerosis having subjective symptoms were tested, and some of them suffered from complications such as ischemia heart disease, hypertensive heart disease and encephalomalacia.
As the active drug, there were employed hard capsules, each containing 100 mg of TN.
Two capsules were orally administered at one time, and the administration was conducted three times a day after eating. The period of the administration was principally 4 weeks or 6 weeks. During this period, the administration was performed continuously. Combined administration of drugs having the same function as that of TN (vitamin E drugs, nicotinic acid, its derivatives and peripheral vasolidators) was prohibited. Drugs which had been continuously administered since before the start of the administration of TN were similarly administered according to the disease case and symptom, and change of the prescription during the test was avoided.
In the above Table, the "Improved" means that the symptom was improved by at least one grade as compared with the symptom before the administration,and each number denotes the total number of the patients in whom the symptom was thus improved.
*The patients were divided into two groups, one in which the symptom was
improved by at least 2 grades (the sum of the patients in which the
symptoms were improved by 2, 3 and 4 grades) and the other in which the
symptom was improved by one grade, unchanged or worsened. The assay was
conducted on these two groups. (In other cases, the patients were divided
into two groups, one in which the symptom was improved by one grade and
the other in which the symptom was unchanged or worsened, and the assay
was made on these two groups.)
according to Fischer direct probability calculation method.

[1] = number of patients, total 3 (Table 9)
[2] = number of patients, total 7 (Table 9)
[3] = number of patients, total 8 (Table 9)
[4] = number of patients, total 9 (Table 9)
[5] = number of patients, total 9 (Table 10)
[6] = number of patients, total 11 (Table 9)
[7] = number of patients, total 13 (Table 9)
[8] = number of patients, total 14 (Table 9)
[9] = number of patients, total 15 (Table 9)
[10] = number of patients, total 16 (Table 9)
[11] = number of patients, total 16 (Table 10)
[12] = number of patients, total 17 (Table 9)
[13] = number of patients, total 18 (Table 9)
[14] = number of patients, total 18 (Table 10)
[15] = number of patients, total 23 (Table 9)
[16] = number of patients, total 23 (Table 10)
[17] = number of patients, total 25 (Table 9)
[18] = number of patients, total 25 (Table 10)
[19] = number of patients, total 26 (Table 9)
[20] = number of patients, total 26 (Table 10)
[21] = number of patients, total 28 (Table 9)
[22] = number of patients, total 28 (Table 10)
[23] = number of patients, total 30 (Table 9)
[24] = number of patients, total 51 (Table 10)

## Cc1c(C)c2c(c(C)c1OC(=O)c1cccnc1)CCC(C)(CCCC(C)CCCC(C)CCCC(C)C)O2 (racemic) [TN, dl-α-tocopheryl nicotinate]
Table 9, P group 21.7
  Forgetfulness: Improvement Ratio: 38.9%
Table 9, P group 37.5
  Virtigo: Improvement Ratio: 66.7%
Table 9, P group 40.0
  Pains on Waist and Back: Improvement Ratio: 64.7%
  Syncope: Improvement Ratio: 75.0%
Table 9, P group 41.2
  Chill on Limbs: Improvement Ratio: 35.7%
Table 9, P group 43.8
  Stiffness in Nape: Improvement ratio: 68.0%
Table 9
  Stiffness in Shoulders: Improvement ratio: 65.4%
Table 9, P group 47.4
  Insomnia: Improvement ratio: 83.3%
Table 9, P group 50.0
  Dizzy Feeling: Improvement ratio: 81.3%
  Irritation: Improvement Ratio: 66.7%
  Rush of Blood: Improvement Ratio: 69.2%
Table 9, P group 52.6
  Tinnitus: Improvement Ratio: 50.0%
Table 9, P group 53.8
  Palsy in Limbs: Improvement ratio: 82.6%
  Short Breath: Improvement Ratio: 42.9%
Table 9, P group 62.5
  Heaviness in Head: Improvement Ratio: 82.1%
Table 9, P group 63.6
  Oppression on Breast: Improvement Ratio: 62.5%
Table 9, P group 66.7
  Warmness: Improvement Ratio: 77.8%
Table 9, P group 70.6
  Languor: Improvement Ratio: 60.0%
Table 9, P group 76.9
  Palpitation: Improvement Ratio: 72.7%
Table 9, P group 77.8
  Depression: Improvement Ratio: 42.9%
Table 9, P group 78.6
  Headache: Improvement ratio: 83.3%
Table 9, P group 100.0
  Pain on Breast: Improvement Ratio: 71.4%
Table 10, P group 37.5
  Vertigo: Improvement ratio: 66.7%
Table 10, P group 43.8, chi0^2 = 3.3270, P < 0.10
  Stiffness in Nape: Improvement ratio: 68.0%
Table 10, P group 44.4, chi0^2 = 5.6104, P < 0.025
  Stiffness in Shoulders and Nape: Improvement ratio: 66.7%
Table 10
  Stiffness in Shoulders: Improvement ratio: 65.4%
Table 10, P group 46.4, chi0^2 = 8.3955, P < 0.005
  Vertigo plus Dizzy Feeling: Improvement ratio: 73.1%
Table 10, P group 47.4, P = 0.0247
  Insomnia: Improvement ratio: 83.3%
Table 10, P group 50.0, chi0^2 = 7.4243, P < 0.01
  Dizzy Feeling: Improvement ratio: 81.3%
Table 10, P group 53.8, P = 0.0318
  Palsy in Limbs: Improvement ratio: 82.6%
Table 10, P group 62.5, chi0^2 = 3.1277, P < 0.10
  Headache: Improvement ratio: 82.1%
human, in vivo
  relief of headache, vertigo, dizzy feeling, syncope, stiffness in the shoulders, stiffness in the nape, palsy in limbs, insomnia and pains on the waist and the back: excellent effects were attained
[1]
  Irritation: Improved: 2
  Irritation: Unchanged or Worsened: 1
[2]
  Depression: Improved: 3
  Depression: Unchanged or Worsened: 4
  Pain on Breast: Improved: 5
  Pain on Breast: Unchanged or Worsened: 2
  Short Breath: Improved: 3
  Short Breath: Unchanged or Worsened: 4
[3]
  Oppression on Breast: Improved: 5
  Oppression on Breast: Unchanged or Worsened: 3
  Syncope: Improved: 6
  Syncope: Unchanged or Worsened: 2
[4]
  Virtigo: Improved: 6
  Virtigo: Unchanged or Worsened: 3
  Warmness: Improved: 7
  Warmness: Unchanged or Worsened: 2
[5]
  Vertigo: Improved by 1 grade: 1
  Vertigo: Improved by 2 grades: 3
  Vertigo: Improved by 3 grades: 1
  Vertigo: Improved by 4 grades: 1
  Vertigo: Not Changed: 2
  Vertigo: Worsened by 1 grade: 1
  Vertigo: Worsened by 2 grades: 0
[6]
  Palpitation: Improved: 8
  Palpitation: Unchanged or Worsened: 3
[7]
  Rush of Blood: Improved: 9
  Rush of Blood: Unchanged or Worsened: 4
[8]
  Chill on Limbs: Improved: 5
  Chill on Limbs: Unchanged or Worsened: 9
[9]
  Languor: Improved: 9
  Languor: Unchanged or Worsened: 6
[10]
  Dizzy Feeling: Improved: 13
  Dizzy Feeling: Unchanged or Worsened: 3
  Tinnitus: Improved: 8
  Tinnitus: Unchanged or Worsened: 8
[11]
  Dizzy Feeling: Improved by 1 grade: 0
  Dizzy Feeling: Improved by 2 grades: 11
  Dizzy Feeling: Improved by 3 grades: 1
  Dizzy Feeling: Improved by 4 grades: 1
  Dizzy Feeling: Not Changed: 2
  Dizzy Feeling: Worsened by 1 grade: 1
  Dizzy Feeling: Worsened by 2 grades: 0
[12]
  Pains on Waist and Back: Improved: 11
  Pains on Waist and Back: Unchanged or Worsened: 6
[13]
  Forgetfulness: Improved: 7
  Forgetfulness: Unchanged or Worsened: 11
  Insomnia: Improved: 15
  Insomnia: Unchanged or Worsened: 3
[14]
  Insomnia: Improved by 1 grade: 7
  Insomnia: Improved by 2 grades: 7
  Insomnia: Improved by 3 grades: 0
  Insomnia: Improved by 4 grades: 1
  Insomnia: Not Changed: 2
  Insomnia: Worsened by 1 grade: 1
  Insomnia: Worsened by 2 grades: 0
[15]
  Palsy in Limbs: Improved: 19
  Palsy in Limbs: Unchanged or Worsened: 4
[16]
  Palsy in Limbs: Improved by 1 grade: 11
  Palsy in Limbs: Improved by 2 grades: 7
  Palsy in Limbs: Improved by 3 grades: 1
  Palsy in Limbs: Improved by 4 grades: 0
  Palsy in Limbs: Not Changed: 4
  Palsy in Limbs: Worsened by 1 grade: 0
  Palsy in Limbs: Worsened by 2 grades: 0
[17]
  Stiffness in Nape: Improved: 17
  Stiffness in Nape: Unchanged or Worsened: 8
[18]
  Stiffness in Nape: Improved by 1 grade: 11
  Stiffness in Nape: Improved by 2 grades: 5
  Stiffness in Nape: Improved by 3 grades: 1
  Stiffness in Nape: Improved by 4 grades: 0
  Stiffness in Nape: Not Changed: 5
  Stiffness in Nape: Worsened by 1 grade: 2
  Stiffness in Nape: Worsened by 2 grades: 1
  Vertigo plus Dizzy Feeling: Improved by 1 grade: 1
  Vertigo plus Dizzy Feeling: Improved by 2 grades: 14
  Vertigo plus Dizzy Feeling: Improved by 3 grades: 2
  Vertigo plus Dizzy Feeling: Improved by 4 grades: 2
  Vertigo plus Dizzy Feeling: Not Changed: 4
  Vertigo plus Dizzy Feeling: Worsened by 1 grade: 2
  Vertigo plus Dizzy Feeling: Worsened by 2 grades: 0
[19]
  Stiffness in Shoulders: Improved: 17
  Stiffness in Shoulders: Unchanged or Worsened: 9
[20]
  Stiffness in Shoulders: Improved by 1 grade: 10
  Stiffness in Shoulders: Improved by 2 grades: 5
  Stiffness in Shoulders: Improved by 3 grades: 0
  Stiffness in Shoulders: Improved by 4 grades: 2
  Stiffness in Shoulders: Not Changed: 8
  Stiffness in Shoulders: Worsened by 1 grade: 1
  Stiffness in Shoulders: Worsened by 2 grades: 0
[21]
  Heaviness in Head: Improved: 23
  Heaviness in Head: Unchanged or Worsened: 5
[22]
  Headache: Improved by 1 grade: 7
  Headache: Improved by 2 grades: 12
  Headache: Improved by 3 grades: 4
  Headache: Improved by 4 grades: 0
  Headache: Not Changed: 4
  Headache: Worsened by 1 grade: 1
  Headache: Worsened by 2 grades: 0
[23]
  Headache: Improved: 25
  Headache: Unchanged or Worsened: 5
[24]
  Stiffness in Shoulders and Nape: Improved by 1 grade: 13
  Stiffness in Shoulders and Nape: Improved by 2 grades: 21
  Stiffness in Shoulders and Nape: Improved by 3 grades: 1
  Stiffness in Shoulders and Nape: Improved by 4 grades: 2
  Stiffness in Shoulders and Nape: Not Changed: 3
  Stiffness in Shoulders and Nape: Worsened by 1 grade: 1
  Stiffness in Shoulders and Nape: Worsened by 2 grades: 0
